# Measured values taken from publication PMC10165273, “Itch receptor MRGPRX4 interacts with the receptor activity–modifying proteins” (The Journal of Biological Chemistry, 2023).
# Several values for one entry are separate records, joined by “and”; a condition that tells them apart may be missing. Equal values may be shown once. *1 amine or outer side, *2 acyl side, *3 side chain or, on linkers, in order; H or OH if unused. Where a SMILES comes first, the peptide text is derived from it. Bridges are numbered along the chain shown (N, C = ends). [ ]: non-standard residue; d: D form. X1 = CC(=O)NC(C(=O)OC(C(C)C)C(N[*:1])C(=O)[*:2])C(O)C(C)C; PhLac = O=C(O)[CH](O)Cc1ccccc1; NMeT = CN[CH](C(=O)O)[CH](C)O; NMeA = CN[CH](C)C(=O)O; NMeDha = C=C(NC)C(=O)O
# Key:
# [1] = system: mock-transfected HEK293T cells; experiment: IP1 accumulation, mock-transfected cells; format: cell-based, human; parameters: IP1 Basal / IP1 span / IP1 Emax / IP1 accumulation, dose-response (Figure 1a) / IP1 accumulation with YM (Figure 1c) / IP1 accumulation: unit not given here; settings: for IP1 Basal / IP1 Emax / IP1 span: Mock
# Procedure: (§1) HEK293T cells were transfected with 1 pg/cell of MRGPRX4 DNA, and the amount of DNA was kept constant at 2 pg/cell with pcDNA3.1(+) empty vector, unless otherwise specified. Twenty four hours after transfection, IP1 assay was performed as previously described ([51]). When applicable, cells were treated with 1 μM YM254890 (YM) or different concentrations of U73122 for 1 h prior to addition of agonist or buffer. After incubation for 2 h, HTRF reagents and IP1 calibration standards were added and incubated for 2 h in the dark at room temperature. Time-resolved fluorescence signals were read on the BioTek Synergy NEO-TRF Hybrid multi-mode reader (BioTek Instruments). All data were carried out in three independent experiments with three technical replicate each.
# (§2) Validation of CALCRL constructs was assayed by cotransfecting HEK293T cells with different tagged versions of CALCRL alone or with each RAMP and with the promiscuous Gqs5 Gq chimera protein, at a respective DNA ratio of 1:1:0.5. Gqs5 is an engineered Gq protein containing the last five amino acid residues of Gs, which allows Gs-coupled GPCRs to signal through Gq downstream signaling pathways ([55]). The homogenous transfection method described above was used for all DNA mixes. CALCRL:RAMP2:Gqs5-transfected cells served as positive control for RAMP functionality.
# (§3) Data reduction, standard calibration, and transformation of HTRF data were performed as previously described ([51]). Normalized IP1 values were calculated relative to the unstimulated mock-transfected cells (set to 0%) and fully stimulated MRGPRX4 (alone if applicable) (set to 100%).
# [2] = target: T1, CALCRL + RAMP3 (Homo sapiens, UniProt O60896+Q16602); experiment: IP1 accumulation, CALCRL with RAMP3 and Gqs5; format: cell-based
# T1 construct: 5-HT3a receptor signal peptide (X1) (N); expressed in transfected cells; host or cells: HEK293T
# T1 sequence (Q16602 23-461): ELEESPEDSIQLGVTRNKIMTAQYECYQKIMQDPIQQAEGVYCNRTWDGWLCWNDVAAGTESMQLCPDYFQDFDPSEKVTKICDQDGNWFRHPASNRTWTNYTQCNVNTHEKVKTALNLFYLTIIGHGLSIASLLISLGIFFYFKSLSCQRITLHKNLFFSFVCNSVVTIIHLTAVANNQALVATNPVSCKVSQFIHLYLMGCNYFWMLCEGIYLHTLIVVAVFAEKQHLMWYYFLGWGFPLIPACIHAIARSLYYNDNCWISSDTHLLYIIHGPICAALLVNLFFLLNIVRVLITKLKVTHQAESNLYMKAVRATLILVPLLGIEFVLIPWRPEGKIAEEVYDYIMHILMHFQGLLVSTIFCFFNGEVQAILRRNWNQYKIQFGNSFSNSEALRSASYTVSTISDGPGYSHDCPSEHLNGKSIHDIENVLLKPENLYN
# T1 sequence (O60896 28-148 limits assumed): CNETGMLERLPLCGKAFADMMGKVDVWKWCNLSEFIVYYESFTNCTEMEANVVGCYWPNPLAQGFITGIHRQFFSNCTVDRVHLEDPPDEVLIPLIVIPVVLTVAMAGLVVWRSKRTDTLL
# Procedure: as §2, §3
# [3] = target: T2, CALCRL (Homo sapiens, UniProt Q16602); experiment: IP1 accumulation, CALCRL alone with Gqs5; format: cell-based
# T2 construct: 5-HT3a receptor signal peptide (X1) (N); expressed in transfected cells; host or cells: HEK293T
# T2 sequence (Q16602 23-461): as the sequence (Q16602 23-461) above
# Procedure: as §2, §3
# [4] = target: T3, MRGPRX4 (Homo sapiens, UniProt Q96LA9); experiment: IP1 accumulation HTRF assay, MRGPRX4; format: cell-based; parameters: key to IP1 Basal / IP1 accumulation with YM (Figure 1c) / response to agonist, MRGPRX4 / IP1 accumulation: % IP1: unstimulated mock-transfected = 0%, fully stimulated MRGPRX4 = 100%; settings: for effect on nateglinide and DCA IP1 responses: inhibitor pretreatment 1 h (Fig. S1D-E); for effect on MRGPRX4 basal IP1 activity: no agonist (Figs. 1C and S1E); for IP1 accumulation with YM (Figure 1c): YM 1 µM, no agonist
# T3 construct: expressed in transfected cells; host or cells: HEK293T
# T3 sequence (Q96LA9 whole entry): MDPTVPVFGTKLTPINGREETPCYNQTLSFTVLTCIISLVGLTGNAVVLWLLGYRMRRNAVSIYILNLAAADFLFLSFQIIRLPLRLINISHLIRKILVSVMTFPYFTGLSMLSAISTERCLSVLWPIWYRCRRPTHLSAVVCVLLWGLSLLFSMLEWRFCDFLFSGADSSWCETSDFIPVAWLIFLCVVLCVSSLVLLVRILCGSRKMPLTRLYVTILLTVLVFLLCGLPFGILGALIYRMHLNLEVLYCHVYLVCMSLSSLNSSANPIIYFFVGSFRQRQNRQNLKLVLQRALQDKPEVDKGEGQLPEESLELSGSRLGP
# Procedure: as §1
# (§4) For characterization of the Tet-On Nluc-HT7-MRGPRX4-GFP10-1D4 construct, HEK293T cells were transfected as previously described with some modifications. Dox dose-response of NLuc-HT7-MRGPRX4-GFP10-1D4 DNA titration was assayed by transfecting HEK293T cells with either 1 or 2 pg/cell of NLuc-HT7-MRGPRX4-GFP10-1D4 construct. Receptor expression was induced 4 h after transfection with addition of different concentrations of dox for 20 h. For the RAMP DNA titration assay, cells were cotransfected with a constant amount of 1 pg/cell of NLuc-HT7-MRGPRX4-GFP10-1D4 DNA and 1, 0.75, 0.5, or 0 pg/cell of each HA-RAMP-OLLAS with the homogenous transfection method. Four hours after transfection, receptor expression was induced with addition of 1000 ng/ml dox. Twenty hours after induction, IP1 assay was performed.
# as §3
# [5] = system: Tet-On MRGPRX4; experiment: dox-induced total receptor expression, Nano-Glo luminescence; format: cell-based, human; settings: normalized total luminescence (Fig. S5I); for EC50: Homo sapiens
# Procedure: as §4
# HEK293T cells were transfected with 1 pg/cell of Tet-On FLAG-NLuc-HT7-MRGPRX4-GFP10-1D4 alone or coexpressed with 0.7, 0.5, 0.3, or 0.1 pg/cell of each RAMP, and expression was induced 4 h after transfection with 1000 ng/ml dox. HEK293T cells transfected with 1 pg/cell of Tet-On CALCRL alone or with 0.5 pg/cell of RAMP2 served as controls. Twenty hours after transfection, media was replaced with BRET buffer. First, the HT7-tagged GPCR was labeled with “pulse” of 100 nM HaloTag Alexa Fluor 660 (cell impermeable, emission 690 nm) for 2 h at 16 °C in the dark. Next, a chase step was performed by adding 100 nM HaloTag 618 (cell permeable, emission 620 nm) for 2 h at 16 °C in the dark. Lastly, Nano-Glo Luciferase assay reagent was prepared per manufacturer’s instructions. Optimal dosage of dox was determined by selecting the concentration at the plateau from a dox dose-response experiment, in which dox-induced expression was assayed with the additional of Nano-Glo Luciferase assay reagent (Fig. S5I).
# Data were acquired by measuring the luminescence at 460, 618, and 690 nm in kinetics mode on a SpectraMax i3X at 37 °C. The obtained emission intensity values were corrected, normalized, plotted against each other, and fitted to a linear equation to generate a scaling factor that was then used to calculate and graph the percentage surface labeling. Experiments were conducted in biological triplicate with three technical replicates each. The corrected 690/460 BRET ratio was normalized to the mean of MRGPRX4 alone (+dox). Similarly, total expression was normalized to the mean of the 460 nm luminescence for MRGPRX4 alone (+dox).
# [6] = HA-CALCRL-1D4 series (Fig. S4J-L)
# [7] = HA-CALCRL-GFP10-1D4 series (Fig. S4G-I)
# [8] = HA-CALCRL-1D4 + FLAG-RAMP3-OLLAS (Fig. S4J-L)
# [9] = HA-CALCRL-1D4 + HA-RAMP3-OLLAS (Fig. S4J-L)
# [10] = HA-CALCRL-GFP10-1D4 + FLAG-RAMP3-OLLAS (Fig. S4G-I)
# [11] = HA-CALCRL-GFP10-1D4 + HA-RAMP3-OLLAS (Fig. S4G-I)
# [12] = HA-CALCRL-1D4 alone (Fig. S4J-L)
# [13] = HA-CALCRL-GFP10-1D4 alone (Fig. S4G-I)
# [14] = Tet-On MRGPRX4+RAMP2 (DNA ratio 1:0.5)
structure (smiles),measurement,setting,value
CC[C@H](C)[C@H](NC(=O)[C@H](CCC(N)=O)NC(=O)[C@H](Cc1c[nH]cn1)NC(=O)[C@H](C)NC(=O)[C@H](CC(C)C)NC(=O)[C@H](CCCCN)NC(=O)[C@H](CCC(N)=O)NC(=O)[C@@H](NC(=O)[C@@H](NC(=O)[C@@H]1CSSC[C@H](NC(=O)CNC(=O)[C@H](Cc2ccccc2)NC(=O)[C@H](CO)NC(=O)[C@H](CCCNC(=N)N)NC(=O)[C@H](CC(C)C)NC(=O)CNC(=O)[C@H](CCC(N)=O)NC(=O)[C@H](Cc2ccccc2)NC(=O)[C@H](CC(N)=O)NC(=O)[C@H](CC(N)=O)NC(=O)[C@H](CCSC)NC(=O)[C@H](CO)NC(=O)[C@H](CCC(N)=O)NC(=O)[C@H](CCCNC(=N)N)NC(=O)[C@@H](N)Cc2ccc(O)cc2)C(=O)N[C@@H](CCCNC(=N)N)C(=O)N[C@@H](Cc2ccccc2)C(=O)NCC(=O)N[C@@H]([C@@H](C)O)C(=O)N1)[C@@H](C)O)C(C)C)C(=O)N[C@@H](Cc1ccc(O)cc1)C(=O)N[C@@H](CCC(N)=O)C(=O)N[C@@H](Cc1ccccc1)C(=O)N[C@H](C(=O)N[C@@H](CC(=O)O)C(=O)N[C@@H](CCCCN)C(=O)N[C@@H](CC(=O)O)C(=O)N[C@@H](CCCCN)C(=O)N[C@@H](CC(=O)O)C(=O)N[C@@H](CC(N)=O)C(=O)N[C@H](C(=O)N[C@@H](C)C(=O)N1CCC[C@H]1C(=O)N[C@@H](CCCNC(=N)N)C(=O)N[C@@H](CO)C(=O)N[C@@H](CCCCN)C(=O)N[C@H](C(=O)N[C@@H](CO)C(=O)N1CCC[C@H]1C(=O)N[C@@H](CCC(N)=O)C(=O)NCC(=O)N[C@@H](Cc1ccc(O)cc1)C(N)=O)[C@@H](C)CC)C(C)C)[C@@H](C)O [Adrenomedullin],IP1 Basal,[1]; [6],0.9133
same,IP1 Emax,[1]; [6],0.05397
same,IP1 span,[1]; [6],-0.8593
same,IP1 Basal,[1]; [7],0.1993
same,IP1 Emax,[1]; [7],11.54
same,IP1 span,[1]; [7],11.34
same,Emax,[2]; [8],96%
same,IP1 Basal,[2]; [8],9.152
same,IP1 span,[2]; [8],86.8%
same,Emax,[2]; [9],108%
same,IP1 Basal,[2]; [9],8.590
same,IP1 span,[2]; [9],99.5%
same,Emax,[2]; [10],84.9%
same,IP1 Basal,[2]; [10],11.09
same,IP1 span,[2]; [10],73.8%
same,Emax,[2]; [11],102%
same,IP1 Basal,[2]; [11],9.590
same,IP1 span,[2]; [11],92%
same,IP1 Basal,[3]; [12],11.35
same,IP1 span,[3]; [12],Unstable
same,Emax,[3]; [13],10.5%
same,IP1 Basal,[3]; [13],4.246
same,Span,[3]; [13],6.24%
COc1ccc2c(c1)CC[C@@H]1[C@@H]2CC[C@]2(C)[C@@H](NCCCCCCN3C(=O)C=CC3=O)CC[C@@H]12 [U73122],IP1 accumulation,"[4]; MRGX4, Basal, U73122 30uM, Fig S1e",3.194 and 5.28
same,effect on nateglinide and DCA IP1 responses,[4],inhibited
same,effect on MRGPRX4 basal IP1 activity,[4],abolished
C=C1C(=O)NC(C)C(=O)N(C)C(C)C(=O)NC(C(OC(=O)C(NC(C)=O)C(O)C(C)C)C(C)C)C(=O)N(C)C(C(C)OC)C(=O)OC(C)C(NC(C)=O)C(=O)OC(Cc2ccccc2)C(=O)N1C (centres unmarked) [YM254890] (Ac-T[PhLac][NMeDha]A[NMeA][X1][NMeT](Me); ester 1-C; configuration not given here),IP1 accumulation with YM (Figure 1c),"[1]; YM 1 µM, MRGPRX4 0 pg DNA/cell, no agonist",1.719
same,IP1 accumulation with YM (Figure 1c),[4]; MRGPRX4 0.125 pg DNA/cell,1.405
same,IP1 accumulation with YM (Figure 1c),[4]; MRGPRX4 0.25 pg DNA/cell,1.309
same,IP1 accumulation with YM (Figure 1c),[4]; MRGPRX4 0.5 pg DNA/cell,1.374
same,IP1 accumulation with YM (Figure 1c),[4]; MRGPRX4 1 pg DNA/cell,1.6019
same,IP1 accumulation with YM (Figure 1c),[4]; MRGPRX4 2 pg DNA/cell,1.692
same,effect on nateglinide and DCA IP1 responses,[4],inhibited
same,effect on MRGPRX4 basal IP1 activity,[4],abolished
"C[C@H]1c2cccc(O)c2C(=O)C2=C(O)[C@]3(O)C(=O)C(C(N)=O)=C(O)[C@@H](N(C)C)[C@@H]3[C@@H](O)[C@@H]21 [dox, doxycycline]",EC50,[5]; [14],8.07 ng/mL
same,EC50,[5]; Tet-On MRGPRX4 alone,4.05 ng/mL
same,total expression Basal,[5]; [14],0.003719
same,total expression Emax,[5]; [14],0.7930
same,total expression logEC50,[5]; [14],0.9067
same,total expression span,[5]; [14],0.7893
same,total expression Basal,[5]; Tet-On MRGPRX4 alone,0.009273
same,total expression Emax,[5]; Tet-On MRGPRX4 alone,0.9497
same,total expression logEC50,[5]; Tet-On MRGPRX4 alone,0.6070
same,total expression span,[5]; Tet-On MRGPRX4 alone,0.9404
